Test results published in patent publication US20050187264A1, “Phosphodiesterase iv inhibitor containing pyridylacrylamide derivative” (priority 2002, published 2005).

Experiments:
[1] = system: Phosphodiesterase IV; experiment: Inhibitory action on phosphodiesterase IV ([3H]cAMP hydrolysis, liquid scintillation); assay type: biochemical; conditions: test substance 10 μM; enzyme isolated from U-937 cell; cAMP 1 μM substrate; 30 min at 30° C.; duplicate
Procedure: Phosphodiesterase IV was isolated using U-937 cell as origin (Torphy, T. J. et al., J. Pharmacol. Exp. Ther., 263, 1195-1205 (1992)). Using [^3 H]cAMP and cAMP (1 μM) as substrate/tracer, incubation was performed for 30 min at 30° C. [^3H]5′-AMP was measured by liquid scintillation. Inhibitory activity is represented by the rate of inhibition of a test substance with respect to a control group that is without the test substance, and is calculated by the following formula: Inhibitory activity (%)=100×(control group value−value of group with test substance addition/control group value.
All tests were implemented in duplicate.

COC(=O)CN(CCc1ccc(OC)c(OC)c1)C(=O)/C=C/c1cccnc1.Cl
melting point: 168 to 170 °C

COc1ccc(CCN(C)C(=O)/C(C#N)=C/c2cccnc2)cc1OC [Compound 2]
melting point: 115 to 120 °C | Phosphodiesterase IV inhibitory activity (10 μM) [1]: 72%

COCCOCOc1c(OC)cc(CCN(C)C(=O)/C=C/c2cccnc2)cc1OC [Compound 36]
melting point: 152 to 155 °C

COc1ccc(CCN(C)C(=O)/C=C/c2cccnc2)cc1OC [Compound 84, (E)-N-(3,4-dimethoxyphenethyl)-N-methyl-3-(3-pyridyl)-2-propenamide]
Phosphodiesterase IV inhibitory activity (10 μM) [1]: 49%

CCOC(=O)COc1ccc(CNC(=O)/C=C/c2cccnc2)cc1OC [Compound 105]
melting point: 105 to 107 °C

COc1ccc(CCN(C)C(=S)/C=C/c2cccnc2)cc1OC.Cl [Compound 135, (E)-N-(3,4-dimethoxyphenethyl)-N-methyl-3-(3-pyridyl)-2-propenethioamide Hydrochloride]
Phosphodiesterase IV inhibitory activity (10 μM) [1]: 53%

COc1ccc(CCNC(=S)/C=C/c2cccnc2)cc1OC.Cl [Compound 136]
melting point: 182 to 187 °C | Phosphodiesterase IV inhibitory activity (10 μM) [1]: 45%

COc1ccc(CCN(C)C(=O)/C=C/c2cccnc2)cc1OC.Cl [Compound 140]
Phosphodiesterase IV inhibitory activity (10 μM) [1]: 54%

COc1ccc(CCN(C)C(=O)/C=C/c2cccnc2)cc1OC [Compound 143]
Phosphodiesterase IV inhibitory activity (10 μM) [1]: 50%

COc1ccc(CCN(C)C(=O)/C=C/c2cccnc2)cc1OC [Compound 144]
Phosphodiesterase IV inhibitory activity (10 μM) [1]: 47%

COc1ccc(CCN(C)C(=O)/C=C/c2cccnc2)cc1OC [Compound 146]
Phosphodiesterase IV inhibitory activity (10 μM) [1]: 43%

COc1ccc(CCN(C)C(=O)/C=C/c2ccccn2)cc1OC.Cl [Compound 153]
Phosphodiesterase IV inhibitory activity (10 μM) [1]: 59%

COc1ccc(C(=O)CN(C)C(=O)/C=C/c2cccnc2)cc1OC [Compound 155, (E)-N-[2-(3,4-dimethoxyphenyl)-2-oxoethyl]-N-methyl-3-(3-pyridyl)-2-propenamide]
Phosphodiesterase IV inhibitory activity (10 μM) [1]: 69%
